Test results reported in patent publication US6153405A, “Lantibiotic mutants and chimeras of enhanced stability and activity, leader sequences therefor, genes encoding the same, and methods of producing and using the same” (The University of Maryland, priority 1998, dated 2000).
Read-outs that look alike come from different tables or passages of the source. *1 amine or outer side, *2 acyl side, *3 side chain or, on linkers, in order; H or OH if unused. Where no end group is shown, it is not given here. Suc = O=C(CCC(=O)[*:2])[*:1]

How the values were obtained:
[1] = system: Bacillus cereus spores and/or vegetative cells; conditions: cited from earlier work
B. cereus T spores [2] = assay: inhibition zone (halo) assay; type: cell-based, Bacillus cereus; conditions: HPLC fractions spotted on agar, sprayed with B. cereus T spores
Method: Biological activity was measured using an inhibition zone (halo) assay (ref. 21 and U.S. application Ser. No. 07/981,525 now U.S. Pat. No. 5,516,682) and a liquid culture assay (26). HPLC fractions were tested for activity by spotting 15 μL onto an agar plate (modified Medium A), incubating at 37° C. for 15 min., spraying with B. cereus T spores and incubating at 37° C. for 16 hr. Positive inhibition is defined as and was determined by a clear zone containing spores that were inhibited during outgrowth surrounded by an opaque lawn of cells derived from the spores that had become vegetative.

B. cereus T spores [3] = assay: liquid culture assay of spore outgrowth; type: cell-based, Bacillus cereus; conditions: for inhibition of spore outgrowth (inhibitory concentration): B. cereus T spores, 90 min incubation
Method: In the liquid culture assay, various concentrations of peptide were added to a suspension of B. cereus T spores in modified medium A and incubated in a rotating drum shaker at 30° C. for 90 min. The inhibitory effects were evaluated using phase contrast microscopy and a Klett-Summerson calorimeter. After incubation, cells were viewed by phase-contrast microscopy to determine their stage of outgrowth. Those cells in early stages of outgrowth (phase-dark and swollen, but only slightly elongated) were considered inhibited. Those cells that were fully elongated and/or divided were considered to be not inhibited. The inhibitory concentration is the concentration of peptide which arrests a majority of the population of spores at the stage of early outgrowth after the 90-min incubation period. Further, spore germination and outgrowth are accompanied by known changes in the optical density at 650 nm. Thus, the stage of outgrowth can be monitored and the inhibitory concentration can be confirmed using a Klett-Summerson calorimeter. Definitive determinations of the inhibitory concentration of peptide advantageously employ both phase-contrast microscopy and measurement of the optical density at 650 nm.

[4] = system: B. cereus vegetative cells; assay: liquid assay of vegetative cells (lysis by turbidity); type: cell-based, Bacillus cereus; conditions: for inhibition of vegetative cells (inhibitory concentration): amount of peptide required to reduce turbidity by 50%
Method: The activity of the chimeric Nis1-11 -Sub12-32 peptide towards inhibiting B. cereus vegetative cells was also determined. Heat-shocked B. cereus T spores (150 micrograms) were added to 1% tryptone (Difco)-0.1 M Tris-phosphate buffer (2 ml) at pH 6.8. The mixture was incubated for 2 hours at 37° C. in a rotating drum shaker, whereupon all of the spores were in the vegetative state. The chimeric peptide was then added, and incubation was continued for one additional hour. Cell lysis was monitored by turbity (measured in Klett units), and the integrity of the cell was determined by phase-contrast microscopy. Relative inhibitory effectiveness was measured as the amount of inhibitory peptide required to reduce the turbity by 50%.

[5] = stability of dehydro residues in aqueous solution by 1H NMR; type: physicochemical; conditions: D2O, pH 6.0, dark, room temperature
Method: Samples for ^1 H NMR spectral analysis were dissolved in deuterated water (99.96 atom % D, Aldrich Chemical Co.), lyophilized (repeated twice) to exchange protons and dissolved in D2 O to a final concentration of 2-3 mg/mL. ^1 H NMR spectra were obtained using a Bruker AMX-500 spectrometer interfaced to an Aspect 3000 computer. Spectra were obtained at a constant temperature of 295 K, using selective solvent suppression. Data were processed using UXNMR software. Mass spectral analysis was performed by PeptidoGenic Research & Co. (Livermore, Calif.) on a Sciex API I Electrospray Mass Spectrometer which has an analysis range of over 200,000 Da with +/-0.01% accuracy, on 5 μL samples at a concentration of about 5 pmol/μL. The reported masses are those calculated as the most probable values based on the different m/z forms.
A 3 mg amount of the Nis1-11 -Sub12-32 chimera (consisting of a mixture of the Early Peak and Late Peak as defined in FIGS. 4 and 5) was dissolved in D2 O at a pH of 6.0, placed in an NMR tube (which was then closed), and incubated in aqueous solution in the dark at room temperature for 2.5 months.

[6] = inferred through nisin from previous measurements (21, 26, 31)

Substance: NL --Nis1-34: complete nisin prepeptide: nisin leader region and nisin structural region (MSTKDFNLDLVSVSKKDSGASPRITSISLCTPGCKTGALMGCNMKTATCHCSIHVSK; full-length; UniProt P13068 1-57, looked up)
- Secreted peptide is active ([1]; prepeptide expressed in L. lactis 11454, ref. c (17)): yes

Substance: Nis1-11 -Sub12-32: chimeric lantibiotic: nisin residues 1-11 and subtilin residues 12-32 (SEQ ID NO:5), processed by B. subtilis 168
- antimicrobial activity in halo assay (B. cereus T spores [2]): possessed antimicrobial activity
- antimicrobial activity in halo assay (B. cereus T spores [2]; listed as Early Peak): antimicrobial activity is associated mainly with the Early Peak
- activity against spore outgrowth (B. cereus T spores [3]): active
- inhibition of spore outgrowth (inhibitory concentration) (B. cereus T spores [3]): about 0.2 μg/ml
- activity relative to E4I-subtilin (fold more active) (B. cereus T spores [3]; [6]): about 2 fold
- activity relative to natural subtilin (times more active) (B. cereus T spores [3]; [6]): 6-8 times
- activity against vegetative growth [4]: active
- inhibition of vegetative cells (inhibitory concentration) [4]: about 2 μg/ml
- change in the NMR resonances of the dehydro residues ([5]; 72-day incubation, mixture of Early Peak and Late Peak): no significant change
- half-life of the Dha5 residue ([5]; NMR at 0, 34 and 72 days): so long that it cannot be estimated from the 72-day time-point

Substance: SL --S1-32: prepeptide: subtilin leader sequence and subtilin structural region (MSKFDDFDLDVVKVSKQDSKITPQWKSESLCTPGCVTGALQTCFLQTLTCNCKISK; full-length; UniProt P10946 1-56, looked up)
- Secreted peptide is active ([1]; prepeptide expressed in B. subtilis 168, ref. b (21)): yes
- Secreted peptide is active ([1]; prepeptide expressed in B. subtilis 6633): yes

Substance: nisin [reference compound]
- inhibition of spore outgrowth (inhibitory concentration) (B. cereus T spores [3]): about 0.2 μg/ml
- inhibition of vegetative cells (inhibitory concentration) [4]: about 2 μg/ml

Substance: succinylated subtilin: subtilin succinylated at its N-terminus, accumulates in late stationary phase of B. subtilis 6633 (Suc-WKSESLCTPGCVTGALQTCFLQTLTCNCKISK; cysteine pairing not given here; also: lantibiotic (post-translational modifications not placed); UniProt P10946 25-56, looked up)
- activity compared with normal unsuccinylated subtilin ([1]; succinylated at N-terminus): significantly less active
